For 21 compounds, T/C results are on record in PubChem BioAssay AID330 (DTP/NCI, 2004).

Several values for one entry are separate records, joined by “and”; a condition that tells them apart may be missing. Equal entries are not always repeated. Toxic doses and inconclusive results are not listed.

The assay concerns P388 leukemia ip, CD2F1 mice, survival T/C. Briefly: NCI In Vivo Anticancer Drug Screen. Data for tumor model P388 Leukemia (intraperitoneal) in CD2F1 (CDF1) mice. As to conditions: endpoint: median survival time, higher = longer survival. The method in brief:
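Mice carrying the transplanted tumor received test compound or vehicle. Survival was recorded in each group, and the value is the treated-group measurement divided by that of the vehicle-treated control group.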

Where [1] appears, read: dose: 50.0 mg/kg/injection, schedule: Q01DX009 (ip), vehicle: saline with Tween-80.
Where [2] appears, read: dose: 100.0 mg/kg/injection, schedule: Q01DX009 (ip), vehicle: saline with Tween-80.
The mark [3] stands for this setting: dose: 200.0 mg/kg/injection, schedule: Q01DX009 (ip), vehicle: saline with Tween-80.
Where [4] appears, read: dose: 15.0 mg/kg/injection, schedule: Q01DX005 (ip), vehicle: saline with Tween-80.
[5] abbreviates: dose: 30.0 mg/kg/injection, schedule: Q01DX005 (ip), vehicle: saline with Tween-80.
Where [6] appears, read: dose: 60.0 mg/kg/injection, schedule: Q01DX005 (ip), vehicle: saline with Tween-80.
[7] abbreviates: dose: 50.0 mg/kg/injection, schedule: Q01DX009 (ip), vehicle: Klucel (hydroxypropylcellulose) (HPC).
Setting [8] is: dose: 200.0 mg/kg/injection, schedule: Q01DX009 (ip), vehicle: Klucel (hydroxypropylcellulose) (HPC).
[9] abbreviates: dose: 50.0 mg/kg/injection, schedule: Q01DX005 (ip), vehicle: Klucel (hydroxypropylcellulose) (HPC).
Setting [10] is: dose: 100.0 mg/kg/injection, schedule: Q01DX009 (ip), vehicle: Klucel (hydroxypropylcellulose) (HPC).

For the compound `CN1CC[C@]23c4c5ccc(O)c4O[C@H]2C(=O)CC[C@H]3[C@H]1C5`, the T/C runs as follows: (dose: 12.5 mg/kg/injection, schedule: Q01DX005 (iv), vehicle: saline) 99 % of control and 102 % of control; (dose: 12.5 mg/kg/injection, schedule: Q01DX009 (ip), vehicle: saline) 108 % of control; (dose: 25.0 mg/kg/injection, schedule: Q01DX005 (iv), vehicle: saline) 102 % of control and 106 % of control; (dose: 25.0 mg/kg/injection, schedule: Q01DX009 (ip), vehicle: saline) 111 % of control; (dose: 50.0 mg/kg/injection, schedule: Q01DX005 (iv), vehicle: saline) 99 % of control and 102 % of control; (dose: 50.0 mg/kg/injection, schedule: Q01DX009 (ip), vehicle: saline) 103 % of control and 97 % of control. In addition, the T/C runs as follows: (dose: 100.0 mg/kg/injection, schedule: Q01DX005 (iv), vehicle: saline) 101 % of control; (dose: 200.0 mg/kg/injection, schedule: Q01DX005 (iv), vehicle: saline) 102 % of control.
Consider `N#Cc1c(-c2ccccc2)nc2n1CCS2`, for which the T/C was 102 % of control (dose: 100.0 mg/kg/injection, schedule: Q01DX001 (ip), vehicle: Klucel (hydroxypropylcellulose) (HPC)); 100 % of control (dose: 200.0 mg/kg/injection, schedule: Q01DX001 (ip), vehicle: Klucel (hydroxypropylcellulose) (HPC)); 100 % of control (dose: 400.0 mg/kg/injection, schedule: Q01DX001 (ip), vehicle: Klucel (hydroxypropylcellulose) (HPC)).
In the case of `Clc1cccc2c(-c3ccccc3)c3cccc(Cl)c3cc12`, the T/C was 101 % of control under setting [1], 97 % of control under setting [2] and 96 % of control under setting [3].
For `CC1C(C(=O)NCC(c2ccccc2)c2ccccc2)CC2CCCCN21` (stereo not drawn), the T/C runs as follows: under setting [4], 96 % of control; under setting [5], 92 % of control; under setting [6], 91 % of control and 92 % of control.
For the compound `O=C(N=Nc1c(Cl)c(O)c2ccccc2c1O)C(F)(F)F`, the T/C is, setting by setting: (dose: 1.56 mg/kg/injection, schedule: Q01DX009 (ip), vehicle: saline with Tween-80) 101 % of control; (dose: 3.13 mg/kg/injection, schedule: Q01DX009 (ip), vehicle: saline with Tween-80) 110 % of control; (dose: 6.25 mg/kg/injection, schedule: Q01DX009 (ip), vehicle: saline with Tween-80) 115 % of control.
In the case of `O=c1c(-c2ccccc2)nnc2sc(-c3cccc(Cl)c3)nn12`, the T/C was 98 % of control (dose: 50.0 mg/kg/injection, schedule: Q04DX002 (ip), vehicle: Klucel (hydroxypropylcellulose) (HPC)); 93 % of control (dose: 100.0 mg/kg/injection, schedule: Q04DX002 (ip), vehicle: Klucel (hydroxypropylcellulose) (HPC)); 90 % of control (dose: 200.0 mg/kg/injection, schedule: Q04DX002 (ip), vehicle: Klucel (hydroxypropylcellulose) (HPC)).
As for `CC(=O)Nc1ccc(SSc2ccc(NC(C)=O)s2)s1`, the T/C is 86 % of control (dose: 50.0 mg/kg/injection, schedule: Q01DX001 (ip), vehicle: saline with Tween-80); 90 % of control (dose: 200.0 mg/kg/injection, schedule: Q01DX001 (ip), vehicle: saline with Tween-80); 97 % of control (dose: 400.0 mg/kg/injection, schedule: Q01DX001 (ip), vehicle: saline with Tween-80).
Regarding `Cc1cccc(C)c1Nc1nnc(-c2ccccc2)s1`, the T/C by setting is: under setting [4], 104 % of control; under setting [5], 103 % of control; under setting [6], 94 % of control.
With `CC(=O)Nc1ccc(OCCOC(=O)Nc2c(Cl)cccc2Cl)cc1`, the T/C is, setting by setting: under setting [7], 92 % of control; under setting [8], 92 % of control.
Regarding `COC(=O)c1cc(-c2ccccc2)[nH]c(=O)c1C#N`, the T/C was 100 % of control (dose: 60.0 mg/kg/injection, schedule: Q01DX005 (ip), vehicle: saline) and 100 % of control (dose: 120.0 mg/kg/injection, schedule: Q01DX005 (ip), vehicle: saline).
For the compound `CC(=O)OC1C=CCC2C(=O)c3cccc(O)c3C(=O)C12` (stereo not drawn), the T/C (dose: 60.0 mg/kg/injection, schedule: Q01DX005 (ip), vehicle: Klucel (hydroxypropylcellulose) (HPC)) was 107 % of control; the T/C (dose: 120.0 mg/kg/injection, schedule: Q01DX005 (ip), vehicle: Klucel (hydroxypropylcellulose) (HPC)) was 105 % of control; the T/C (dose: 240.0 mg/kg/injection, schedule: Q01DX005 (ip), vehicle: Klucel (hydroxypropylcellulose) (HPC)) is 97 % of control.
On to `O=C(OCC1OC(O)(COC(=O)c2ccccc2)C(OC(=O)c2ccccc2)C1OC(=O)c1ccccc1)c1ccccc1` (stereo not drawn), for which the T/C (dose: 12.5 mg/kg/injection, schedule: Q01DX005 (ip), vehicle: Klucel (hydroxypropylcellulose) (HPC)) was 97 % of control; the T/C (dose: 25.0 mg/kg/injection, schedule: Q01DX005 (ip), vehicle: Klucel (hydroxypropylcellulose) (HPC)) was 98 % of control; the T/C under setting [9] was 90 % of control and 92 % of control.
As to `O=[N+]([O-])C1C=Nc2ccccc2N=C1`, the T/C by setting is: under setting [7], 105 % of control; under setting [10], 97 % of control; under setting [8], 97 % of control; (dose: 400.0 mg/kg/injection, schedule: Q01DX009 (ip), vehicle: Klucel (hydroxypropylcellulose) (HPC)) 96 % of control.
Turning to `COc1cccc2c1C(=O)c1c(O)c3c(c(O)c1C2=O)CC(O)(/C(C)=N/NC(=O)c1cc(C(F)(F)F)cc(C(F)(F)F)c1)CC3OC1CC(N)C(O)C(C)O1` (stereo not drawn), the T/C is, setting by setting: (dose: 0.78 mg/kg/injection, schedule: Q01DX009 (ip), vehicle: water) 151 % of control; (dose: 1.56 mg/kg/injection, schedule: Q01DX009 (ip), vehicle: water) 174 % of control; (dose: 3.13 mg/kg/injection, schedule: Q01DX009 (ip), vehicle: water) 160 % of control and 185 % of control; (dose: 6.25 mg/kg/injection, schedule: Q01DX009 (ip), vehicle: water) 93 % of control and 95 % of control.
As for `O=[N+]([O-])CCCN=NN1CCCCC1`, the T/C was 104 % of control (dose: 12.5 mg/kg/injection, schedule: Q04DX002 (ip), vehicle: saline); 107 % of control (dose: 25.0 mg/kg/injection, schedule: Q04DX002 (ip), vehicle: saline); 103 % of control (dose: 50.0 mg/kg/injection, schedule: Q04DX002 (ip), vehicle: saline).
As to `Fc1ccc(-c2nc3cc(-c4ccccc4)[nH]n3c2N=Nc2ccccc2)cc1`, the T/C is 105 % of control (dose: 50.0 mg/kg/injection, schedule: Q01DX005 (ip), vehicle: saline with Tween-80); 103 % of control (dose: 100.0 mg/kg/injection, schedule: Q01DX005 (ip), vehicle: saline with Tween-80); 108 % of control (dose: 200.0 mg/kg/injection, schedule: Q01DX005 (ip), vehicle: saline with Tween-80).
Consider `CCCCCCC(=O)/C=C/c1cc(OC)ccc1OC`, for which the T/C is 100 % of control (dose: 12.5 mg/kg/injection, schedule: Q01DX009 (ip), vehicle: saline with Tween-80); 99 % of control (dose: 25.0 mg/kg/injection, schedule: Q01DX009 (ip), vehicle: saline with Tween-80); 99 % of control under setting [1]; 99 % of control and 96 % of control under setting [2]; 97 % of control under setting [3].
Regarding `C=CC(=O)N(C)c1nc(N(C)C)nc(N(C)C)n1`, the T/C is, setting by setting: under setting [9], 102 % of control; (dose: 100.0 mg/kg/injection, schedule: Q01DX005 (ip), vehicle: Klucel (hydroxypropylcellulose) (HPC)) 108 % of control.
For `O=[N+]([O-])c1ccc2c(Cl)c3ccccc3nc2c1`, the T/C is, setting by setting: under setting [1], 95 % of control; under setting [2], 103 % of control; under setting [3], 94 % of control.
`CCCC12C=C(OC)C(=O)C=C1OC(c1ccc3c(c1)OCO3)C2C` (stereo not drawn): the T/C is, setting by setting: (dose: 8.75 mg/kg/injection, schedule: Q01DX005 (ip), vehicle: Klucel (hydroxypropylcellulose) (HPC)) 106 % of control; (dose: 17.5 mg/kg/injection, schedule: Q01DX005 (ip), vehicle: Klucel (hydroxypropylcellulose) (HPC)) 104 % of control; (dose: 35.0 mg/kg/injection, schedule: Q01DX005 (ip), vehicle: Klucel (hydroxypropylcellulose) (HPC)) 104 % of control.
For the compound `O=c1oc2ccccc2cc1Cc1cc2ccccc2oc1=O`, the T/C by setting is: under setting [7], 103 % of control; under setting [10], 97 % of control.
